Legend:
pKa measurement = assay type: physicochemical; settings: weak diprotic acid
LAR = LAR (Homo sapiens, UniProt P10586); settings: 22 °C and pH 6.5; originally obtained; cited from earlier work
Chain of LAR (P10586 30-1907): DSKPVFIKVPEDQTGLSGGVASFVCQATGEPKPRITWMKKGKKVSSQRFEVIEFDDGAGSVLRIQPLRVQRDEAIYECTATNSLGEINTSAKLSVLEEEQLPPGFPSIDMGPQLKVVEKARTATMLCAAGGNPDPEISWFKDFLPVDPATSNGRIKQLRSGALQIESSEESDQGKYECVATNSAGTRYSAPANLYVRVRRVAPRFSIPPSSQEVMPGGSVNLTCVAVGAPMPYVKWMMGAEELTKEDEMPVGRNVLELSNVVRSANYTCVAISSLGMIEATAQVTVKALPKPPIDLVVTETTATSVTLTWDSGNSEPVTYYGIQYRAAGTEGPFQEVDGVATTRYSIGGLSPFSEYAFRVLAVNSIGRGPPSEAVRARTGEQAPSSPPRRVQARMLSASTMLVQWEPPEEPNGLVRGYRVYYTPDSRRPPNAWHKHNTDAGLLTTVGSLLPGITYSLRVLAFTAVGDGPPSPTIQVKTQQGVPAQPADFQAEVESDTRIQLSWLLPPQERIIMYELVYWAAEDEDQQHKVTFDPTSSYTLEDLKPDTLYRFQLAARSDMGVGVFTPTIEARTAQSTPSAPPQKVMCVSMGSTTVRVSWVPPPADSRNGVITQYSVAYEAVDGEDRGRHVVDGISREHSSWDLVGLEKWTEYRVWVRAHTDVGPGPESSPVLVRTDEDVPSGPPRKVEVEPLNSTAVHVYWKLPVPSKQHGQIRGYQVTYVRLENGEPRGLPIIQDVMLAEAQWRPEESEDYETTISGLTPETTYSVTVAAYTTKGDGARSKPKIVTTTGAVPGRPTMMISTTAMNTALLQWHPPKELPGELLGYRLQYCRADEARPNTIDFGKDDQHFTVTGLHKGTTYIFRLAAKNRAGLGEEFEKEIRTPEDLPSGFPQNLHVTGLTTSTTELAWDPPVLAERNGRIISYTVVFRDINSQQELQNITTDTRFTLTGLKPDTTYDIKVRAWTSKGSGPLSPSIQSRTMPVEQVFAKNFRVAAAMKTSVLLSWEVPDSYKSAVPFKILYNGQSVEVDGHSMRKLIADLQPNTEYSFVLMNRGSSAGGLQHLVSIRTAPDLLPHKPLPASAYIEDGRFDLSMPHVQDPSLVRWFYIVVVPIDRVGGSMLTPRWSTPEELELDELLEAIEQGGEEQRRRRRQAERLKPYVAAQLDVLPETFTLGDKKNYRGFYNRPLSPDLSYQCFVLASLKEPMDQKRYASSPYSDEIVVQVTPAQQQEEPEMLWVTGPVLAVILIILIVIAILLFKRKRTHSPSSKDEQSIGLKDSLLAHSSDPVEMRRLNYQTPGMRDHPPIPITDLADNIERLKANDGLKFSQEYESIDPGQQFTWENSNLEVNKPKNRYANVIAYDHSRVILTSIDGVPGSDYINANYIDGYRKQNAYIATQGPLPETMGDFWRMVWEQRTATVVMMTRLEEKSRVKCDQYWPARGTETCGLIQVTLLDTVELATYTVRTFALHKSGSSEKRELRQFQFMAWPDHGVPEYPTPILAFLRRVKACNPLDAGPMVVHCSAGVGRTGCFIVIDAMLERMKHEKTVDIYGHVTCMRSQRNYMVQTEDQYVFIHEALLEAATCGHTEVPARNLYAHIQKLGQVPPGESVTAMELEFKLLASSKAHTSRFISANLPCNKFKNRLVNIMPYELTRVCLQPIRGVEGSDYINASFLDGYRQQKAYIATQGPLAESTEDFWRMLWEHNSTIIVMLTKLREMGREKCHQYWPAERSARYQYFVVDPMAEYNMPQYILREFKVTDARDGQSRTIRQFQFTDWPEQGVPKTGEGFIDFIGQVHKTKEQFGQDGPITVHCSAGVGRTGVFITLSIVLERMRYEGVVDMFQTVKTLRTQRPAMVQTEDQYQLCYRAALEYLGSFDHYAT

SMILES: CC1(C)Cc2c(O)c(C=O)c3c(c2C1)C(=O)OC(O)C3 (stereo not drawn) [illudalic acid]
- pKa (pKa measurement; pKa (first), first value): 5.42
- pKa (pKa measurement; pKa (second), second value): 6.6
- t^∞1/2 (LAR): 0.5 min

Reference: publication PMC8906844 (Organic & biomolecular chemistry, 2021)
